Measured values reported in US20210354135A1, “SYSTEMS AND METHODS FOR EVALUATING AN ABILITY OF A BLOOD SAMPLE TO COAGULATE, CLOT, AND/OR OCCLUDE” (The Texas A&M University System, priority 2020, published 2021).

Legend:
[1] = tested on: whole blood; experiment: Fibrin area coverage by fluorescence microscopy in collagen-coated tortuous microfluidic device perfused with whole blood; type: cell-based, human
Description: A microfluidic device was then fabricated and mounted onto a microscope for visualization. The microfluidic device was also connected the to a syringe pump to introduce flow therethrough in a configuration similar, in at least some respects, to that of system 10 shown in FIG. 1. Blood first entered into a large reservoir (4.7 mm wide) and then flow split into four smaller parallel stenosed tortuous channels (200 μm wide); followed by convergence of the flow into an outlet similar to the inlet. The 4-channel design is partially analogous to a vessel network in vivo in which clots may form or detach locally, but the pressure still increases due to the systemic thrombosis. In addition, the total width and length of the device were designed to fit on a standard glass microscope slide for practical ease. Each device contains multiple single microchannel sections that were optimized to create maximum tortuosity (alternating 30° bends, corresponding to TI=3.4), to expose flowing whole blood to varying shear rates due to both stenosis and tortuosity, thus promoting rapid clot formation and occlusion. To enable more rapid cell activation and adhesion, the surface of the microchannels were further functionalized within the device with collagen type I, which is a commonly applied platelet agonist. The microfluidic device was operated at a flowrate of 70 μl/min, leading to a pre-stenosed mean wall shear rate of 1,200 reciprocal seconds (1/s) corresponding to typical arteriolar flow, and a wall shear gradient of 935 reciprocal second-millimeters (1/(s-m)) in the straight region following the pre-stenosed reservoir.
Referring to FIGS. 13, 14, re-calcified citrated whole blood was perfused through the microfluidic device for a maximum of 10 minutes at the 70 μl/min, less than 1 mL of blood was consumed, and the formation of various sized thrombi was detected throughout its entire length using fluorescence imaging 205, 207 shown in FIGS. 13, 14, respectively. […]

[2] = tested on: recalcified citrated whole blood; experiment: Pressure-sensor readout of clot formation and clotting time in tortuous microfluidic device perfused with recalcified citrated whole blood; type: cell-based, human; settings: for clotting time (2.5× pressure increase from baseline): increasing concentration of heparin (0-1 IU/ml) or bivalirudin (0-75 ng/mL), FIGS. 20, 22
Description: Even though microscopic analysis of real-time thrombus formation in the microfluidic device may be useful in labs, the microfluidic device may also be deployed and utilized at the point-of-care. In the interest of utilizing the microfluidic device at the point-of-care, the microfluidic device was connected to a syringe pump, a disposable pressure sensor, and a display monitor. Given that each of these components are already a part of most extracorporeal circuits, these components may be conveniently integrated in broad critical care settings. Additionally, using these components, clot formation may be automatically tracked in real-time by measuring changes in fluid pressure caused by increasing channel occlusion inside the device, as described above with respect to system 10.
It was found during testing of the microfluidic device that as recalcified citrated whole blood was perfused and formed clots inside the microfluidic device, pressure increases typical of the dynamics of clotting in blood vessel in vivo, or in an in vitro hollow channel, was seen, the pressure increases comprising three stages—a steady reaction time, a growth phase, and saturation. […] Next, a clotting time measurement was developed for these pressure readouts to serve as a quantitative end point in lab and clinical settings.
The experimental microfluidic described above was fabricated from PDMS soft lithography to a size that would fit on a standard (e.g., 75 mm×50 mm) microscope slide. The cured PDMS from the master mold was bonded to a […] PDMS-coated glass slide and punched with inlet and outlet 1.5 mm holes. Next, the device was coated with rat tail type I collagen at 100 μg/ml infused into the microfluidic device which was pre-treated with silane. The microfluidic device was incubated at 37° C. for three to four hours and washed with saline solution prior to blood perfusion. At the inlet side of the microfluidic device, a reservoir was created by force-fitting an open slip-tip syringe and fresh blood was stored therein. At the outlet, tubing was connected to an inline, disposable pressure sensor configured to determine pressure change across the microfluidic device. The other end of the pressure sensor was connected to a syringe pump which pulled the stored blood at a mean arteriole wall shear rate of 1200 1/s. Thrombus formation was observed using time-lapse imaging (10×, NA 0.35) of fluorescently labelled fibrinogen (15 μg/ml, Alexa Fluor 647, Invitrogen) and platelets (10 μl/ml Human CD41-PE (clone: VIPL3), Invitrogen) added directly to the blood and incubated at room temperature for approximately eight minutes for whole blood imaging. Fluorescence microscopy of fibrin and platelets was then performed at an interval of approximately 30 seconds.

| Compound | fibrin area coverage ([1]; UFH 0-1 IU/mL added to whole blood, fluorescently labelled fibrin, FIGS. 15, 16) | blood flow pressure increase over time ([2]; heparin 0-1 IU/ml added into blood, relative to normal controls, FIG. 19) | clotting time (2.5× pressure increase from baseline) [2] | fibrin area coverage ([1]; bivalirudin 0-100 ng mL−1 added to whole blood, FIGS. 17, 18) | fibrin area coverage ([1]; bivalirudin at 75 ng/ml in whole blood, FIGS. 17, 18) | blood flow pressure increase over time ([2]; bivalirudin 0-75 ng/mL added into blood, FIG. 21) | blood flow pressure curve over time ([2]; increasing doses of tranexamic acid 0-4 mg/mi in whole blood, FIG. 25) | clotting time ([2]; increasing doses of tranexamic acid 0-4 mg/mi in whole blood, FIG. 26) |
| --- | --- | --- | --- | --- | --- | --- | --- | --- |
| unfractionated heparin | decrease in fibrin area coverage | the pressure increase shifted relative to normal controls | clotting time decreased as concentration increased | – | – | – | – | – |
| bivalirudin | – | – | clotting time decreased as concentration increased | reduced fibrin | nearly complete clearance | a similar trend | – | – |
| NC[C@H]1CC[C@H](C(=O)O)CC1 [tranexamic acid] | – | – | – | – | – | – | relative shift in pressure curve to the left | decrease in clotting time |
